Test results taken from patent US7396837B2, “Antitumoral analogs of lamellarins” (Pharma Mar, S.A.U., priority 2002, dated 2008).

Key:
Type in all cases: cell-based
[1] = system: SKOV-3; assay: SRB colorimetric cell growth inhibition assay, SKOV-3; conditions: Homo sapiens; for GI50: SK-OV-3, SKOV-3, GI=growth inhibition, read-out: GI50 SKOV-3; for CC50 / IC (TGI): SK-OV-3, SKOV-3; for CC50: LC=cell killing (cytotoxic effect), read-out: LC50 SKOV-3; for IC (TGI): TGI=total growth inhibition (cytostatic effect), read-out: TGI SKOV-3
Summary of the method: (§1)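 Growth and viability quantified by sulforhodamine B staining in 96-well microplates. Triplicate wells give mean ± SD; derived endpoints are GI, TGI (cytostatic) and LC (cytotoxic).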

[2] = SRB colorimetric cell growth inhibition assay, H-MEC-1; conditions: human, H-MEC-1 cells, H-MEC-1; LC=cell killing (cytotoxic effect); read-out: LC50 H-MEC-1
Summary of the method: as §1

[3] = system: H-MEC-1; assay: as above; conditions: Homo sapiens, HMEC-1, H-MEC-1; for GI50: GI=growth inhibition; for IC (TGI): TGI=total growth inhibition (cytostatic effect), read-out: TGI H-MEC-1
Summary of the method: as §1

[4] = system: IGROV; assay: SRB colorimetric cell growth inhibition assay, IGROV; conditions: Homo sapiens, IGROV; for GI50: GI=growth inhibition, read-out: GI50 IGROV; for CC50: LC=cell killing (cytotoxic effect), read-out: LC50 IGROV; for IC (TGI): TGI=total growth inhibition (cytostatic effect), read-out: TGI IGROV
Summary of the method: (§2)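 Sulforhodamine B colorimetric readout measured cell growth and viability after continuous compound exposure of human cancer cell lines in 96-well plates. Triplicate wells gave mean ± SD, from which growth inhibition (GI), cytostatic total growth inhibition (TGI) and cytotoxic cell killing (LC) were calculated.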

[5] = system: LoVo; assay: SRB colorimetric cell growth inhibition assay, LoVo; conditions: Homo sapiens, LoVo; for GI50: GI=growth inhibition, read-out: GI50 LOVO; for CC50: LC=cell killing (cytotoxic effect), read-out: LC50 LOVO; for IC (TGI): TGI=total growth inhibition (cytostatic effect), read-out: TGI LOVO
Summary of the method: as §2

[6] = system: SK-BR-3; assay: SRB colorimetric cell growth inhibition assay, SK-BR-3; conditions: Homo sapiens, SK-BR-3, SK-BR-3; for GI50: GI=growth inhibition, read-out: GI50 SK-BR-3; for CC50: LC=cell killing (cytotoxic effect), read-out: LC50 SK-BR-3; for IC (TGI): TGI=total growth inhibition (cytostatic effect), read-out: TGI SK-BR-3
Summary of the method: as §2

[7] = system: LoVo-Dox; assay: SRB colorimetric cell growth inhibition assay, LoVo-Dox (MDR); conditions: Homo sapiens, LOVO-DOX; for GI50: GI=growth inhibition, read-out: GI50 LOVO-DOX; for CC50: LC=cell killing (cytotoxic effect), read-out: LC50 LOVO-DOX; for IC (TGI): TGI=total growth inhibition (cytostatic effect), read-out: TGI LOVO-DOX
Summary of the method: as §2

[8] = system: DU-145; assay: SRB colorimetric cell growth inhibition assay, DU-145; conditions: Homo sapiens, DU-145, DU-145; for GI50: GI=growth inhibition, read-out: GI50 DU-145; for CC50: LC=cell killing (cytotoxic effect), read-out: LC50 DU-145; for IC (TGI): TGI=total growth inhibition (cytostatic effect), read-out: TGI DU-145
Summary of the method: as §2

[9] = system: IGROV-ET; assay: SRB colorimetric cell growth inhibition assay, IGROV-ET (ET-743 resistant); conditions: Homo sapiens, IGROV-ET; for GI50: GI=growth inhibition, read-out: GI50 IGROV-ET; for CC50: LC=cell killing (cytotoxic effect), read-out: LC50 IGROV-ET; for IC (TGI): TGI=total growth inhibition (cytostatic effect), read-out: TGI IGROV-ET
Summary of the method: as §2

[10] = system: PANC-1; assay: SRB colorimetric cell growth inhibition assay, PANC-1; conditions: Homo sapiens, PANC-1, PANC-1; for GI50: GI=growth inhibition, read-out: GI50 PANC-1; for CC50: LC=cell killing (cytotoxic effect), read-out: LC50 PANC-1; for IC (TGI): TGI=total growth inhibition (cytostatic effect), read-out: TGI PANC-1
Summary of the method: as §2

[11] = system: SK-MEL-28; assay: SRB colorimetric cell growth inhibition assay, SK-MEL-28; conditions: Homo sapiens, SK-MEL-28, MEL-28; for GI50: GI=growth inhibition, read-out: GI50 MEL-28; for CC50: LC=cell killing (cytotoxic effect), read-out: LC50 MEL-28; for IC (TGI): TGI=total growth inhibition (cytostatic effect), read-out: TGI MEL-28
Summary of the method: as §2

[12] = system: LNCaP; assay: SRB colorimetric cell growth inhibition assay, LNCaP; conditions: Homo sapiens, LNCaP, LN-caP; for GI50: GI=growth inhibition, read-out: GI50 LN-caP; for CC50: LC=cell killing (cytotoxic effect), read-out: LC50 LN-caP; for IC (TGI): TGI=total growth inhibition (cytostatic effect), read-out: TGI LN-caP
Summary of the method: as §2

[13] = system: HT-29; assay: SRB colorimetric cell growth inhibition assay, HT-29; conditions: Homo sapiens, HT-29, HT-29; for GI50: GI=growth inhibition, read-out: GI50 HT-29; for CC50: LC=cell killing (cytotoxic effect), read-out: LC50 HT-29; for IC (TGI): TGI=total growth inhibition (cytostatic effect), read-out: TGI HT-29
Summary of the method: as §2

[14] = system: K-562; assay: SRB colorimetric cell growth inhibition assay, K-562; conditions: Homo sapiens, K562, K-562; for GI50: GI=growth inhibition, read-out: GI50 K-562; for CC50: LC=cell killing (cytotoxic effect), read-out: LC50 K-562; for IC (TGI): TGI=total growth inhibition (cytostatic effect), read-out: TGI K-562
Summary of the method: as §2

[15] = system: A-549; assay: SRB colorimetric cell growth inhibition assay, A-549; conditions: Homo sapiens, A549, A-549; for GI50: GI=growth inhibition, read-out: GI50 A-549; for CC50: LC=cell killing (cytotoxic effect), read-out: LC50 A-549; for IC (TGI): TGI=total growth inhibition (cytostatic effect), read-out: TGI A-549
Summary of the method: as §2

## COc1cc2ccn3c(c(-c4ccc(OC(=O)[C@H](C)NC(=O)OC(C)(C)C)c(OC)c4)c4c5cc(OC)c(OC(=O)[C@H](C)NC(=O)OC(C)(C)C)cc5oc(=O)c43)c2cc1OC [Compound 77]
[1]
  GI50: 7.52 µM
  CC50: 11.7 µM
  IC (TGI): 11.7 µM
[2]
  CC50: 11.7 µM
[3]
  GI50: 2.71 µM
  IC (TGI): 11.7 µM
[4]
  GI50: 5.92 µM
  CC50: 11.7 µM
  IC (TGI): 8.84 µM
[5]
  GI50: 11.7 µM
  CC50: 11.7 µM
  IC (TGI): 11.7 µM
[6]
  GI50: 3.53 µM
  CC50: 11.7 µM
  IC (TGI): 11.7 µM
[7]
  GI50: 10.2 µM
  CC50: 11.7 µM
  IC (TGI): 11.7 µM
[8]
  GI50: 0.8 µM
  CC50: 11.7 µM
  IC (TGI): 3.96 µM
[9]
  GI50: 0.258 µM
  CC50: 11.7 µM
  IC (TGI): 1.17 µM
[10]
  GI50: 4.46 µM
  CC50: 11.7 µM
  IC (TGI): 11.7 µM
[11]
  GI50: 3.29 µM
  CC50: 11.7 µM
  IC (TGI): 10.1 µM
[12]
  GI50: 7.51 µM
  CC50: 11.7 µM
  IC (TGI): 11.7 µM
[13]
  GI50: 11.7 µM
  CC50: 11.7 µM
  IC (TGI): 11.7 µM
[14]
  GI50: 2.13 µM
  CC50: 11.7 µM
  IC (TGI): 6.15 µM
[15]
  GI50: 6.69 µM
  CC50: 11.7 µM
  IC (TGI): 11.7 µM

## COc1cc2c(cc1OC)-c1c(-c3ccc(OC(=O)[C@H](Cc4ccccc4)NC(=O)OC(C)(C)C)c(OC)c3)c3c4cc(OC)c(OC(=O)[C@H](Cc5ccccc5)NC(=O)OC(C)(C)C)cc4oc(=O)c3n1CC2 [Compound 84]
[1]
  GI50: 4.58 µM
  CC50: 9.9 µM
  IC (TGI): 9.9 µM
[2]
  CC50: 5.96 µM
[3]
  GI50: 0.682 µM
  IC (TGI): 1.86 µM
[4]
  GI50: 2.41 µM
  CC50: 9.9 µM
  IC (TGI): 6.28 µM
[5]
  GI50: 4.48 µM
  CC50: 9.9 µM
  IC (TGI): 9.9 µM
[6]
  GI50: 0.46 µM
  CC50: 9.9 µM
  IC (TGI): 0.95 µM
[7]
  GI50: 9.9 µM
  CC50: 9.9 µM
  IC (TGI): 9.9 µM
[8]
  GI50: 3.41 µM
  CC50: 9.9 µM
  IC (TGI): 8.36 µM
[9]
  GI50: 4.26 µM
  CC50: 9.9 µM
  IC (TGI): 8.25 µM
[10]
  GI50: 0.501 µM
  CC50: 9.9 µM
  IC (TGI): 5.47 µM
[11]
  GI50: 2.07 µM
  CC50: 7.21 µM
  IC (TGI): 3.86 µM
[12]
  GI50: 0.71 µM
  CC50: 5.21 µM
  IC (TGI): 2.01 µM
[13]
  GI50: 2.34 µM
  CC50: 9.9 µM
  IC (TGI): 9.9 µM
[14]
  GI50: 0.731 µM
  CC50: 9.9 µM
  IC (TGI): 3.3 µM
[15]
  GI50: 2.66 µM
  CC50: 9.03 µM
  IC (TGI): 4.91 µM
